# Where two headings read alike, the source gives them in different places.
# Experiments:
# [1] = target: T1, rNaV1.4 expressed in CHO cells (Rattus norvegicus, UniProt P15390); assay: Na+ current block at steady state, whole-cell patch clamp with pulse trains; type: cell-based; details: for depolarizing pulses required to reach steady-state block: 10 Hz pulse trains
# T1 construct: expressed in transfected cells; host or cells: CHO cells
# Description: Binding of aconitine to NaV is use-dependent and is known to result both in a left shift of the current-voltage (I-V) relationship and in partial block of the channel. […] To determine whether aconitine binding is reversible, two experiments were designed. First, as block by aconitine is known to be use dependent, peak current was measured as a function of pulse number in the presence of two different concentrations of aconitine. Since aconitine binds preferentially to the open state of the sodium channel, a pulse train was applied sequentially with a control pulse used to record peak current. The pulse train consisted of a series of 50 depolarizing pulses (from −100 mV holding potential to 0 mV, 10 ms duration) applied at 10 Hz frequency, while the control pulse consisted of a single depolarizing pulse (from −100 mV holding potential to 0 mV test potential, 10 ms duration).
# Pulse trains of 10 Hz frequency and control pulses were applied sequentially to cells expressing rNaV1.4, and currents elicited from the control pulse were recorded after each pulse train. This process was repeated until the current elicited from the control pulse had reached a steady state and was no longer decreasing with each additional pulse train. If block were irreversible, this steady state current would be expected to be independent of toxin concentration—the toxin would not be able to dissociate from its receptor, and the number of toxin molecules is much greater than the number of sodium channels (assuming a 100 μL chamber containing 1000 CHO cells, each expressing 10,000 sodium channels, at 50 μM concentration toxin molecules outnumber receptors by a factor of 3×10^8:1), therefore, all receptors would eventually reach the bound state.
# Block by aconitine is known to be use-dependent, therefore the use-dependence of the C14 derivatives of aconitine was evaluated. Peak Na current was measured as a function of pulse number in the presence of different concentrations of the molecules. […] Since aconitine binds preferentially to the open state of the sodium channel, a pulse train was applied sequentially with a control pulse used to record peak current. The pulse train consisted of a series of 50 depolarizing pulses (from −100 mV holding potential to 0 mV, 10 ms duration) applied at 10 Hz frequency, while the control pulse consisted of a single depolarizing pulse (from −100 mV holding potential to 0 mV test potential, 10 ms duration).
# Pulse trains of 10 Hz frequency and control pulses were applied sequentially to CHO cells expressing rNaV1.4, and currents elicited from the control pulse were recorded after each pulse train. This process was repeated until the current elicited from the control pulse had reached a steady state and was no longer decreasing with each additional pulse train. If block were irreversible, this steady state current would be expected to be independent of toxin concentration—the toxin would not be able to dissociate from its receptor, and the number of toxin molecules is much greater than the number of sodium channels, therefore, all receptors would eventually reach the bound state.
# The ability of the synthesized aconitine derivatives to block NaV channels was evaluated with patch-clamp experiments in the whole-cell configuration on CHO cells expressing rNaV1.4 heterologously. A buffer solution containing the toxin was applied to the cells, whole-cell Na^+ currents were recorded until the decreasing current reached a steady-state (300 to 3000 pulses, depending on the molecules and concentrations). The peak Na^+ currents were measured with a depolarizing test pulse (from −100 mV holding potential to 0 mV test potential, 10 ms duration).
# [2] = target: T1, rNaV1.4 expressed in CHO cells; type: cell-based
# Description: […] […] It is noteworthy that little or no increase in current was observed during wash off when no depolarizing pulses were applied and peak current was measured as a function of time.
# Since the molecules bind to the open-state of the Nav channel their release also requires activation pulses. In typical experiments, buffered external solution was perfused and a pulse train sequence was applied to the patch-clamp until the current reached a steady-state for at least two minutes.
# [3] = target: T1, rNaV1.4 expressed in CHO cells; assay: Activation: current-voltage (I-V) and conductance-voltage (G-V) relationship, whole-cell recording; type: cell-based; details: 50 μM
# Description: To determine if the shift in I-V relationship is affected by the aromaticity of the aconitine C14 benzoate, current-voltage relationships were recorded for control cells expressing NaV, those that had been modified by aconitine, and those that had been modified by aconitine C14-cyclohexanoate 4.8d. For the modified channels, solutions of 50 μM concentration of the respective toxins were perfused onto the cells, and then depolarizing pulses were applied until a steady state current was observed, generally requiring about 1000 pulses. At that time, current-voltage relationships were again recorded. […] A shift towards hyperpolarizing potentials is clearly observed in both cases. Currents recorded at −50 mV are highlighted for all three experiments.
# To determine the effect on current-voltage (I-V) relationship of the aconitine derivatives, whole cell currents were recorded in cells expressing NaV in the presence of aconitine derivatives. Control I-V plots were recorded with unmodified NaV1.4, to which were compared NaV channels modified by aconitine as well as by selected analogs. For the modified channels, solutions of the respective toxins were perfused onto the cells, and then depolarizing pulses were applied until a steady state current was observed, generally requiring about 1000 pulses. A sequence of test pulses was then recorded to determine the current-voltage relationships (using a step protocol in which CHO cells were depolarized for 10 ms from a holding potential of −100 mV to a range of potentials from −95 mV to +30 mV in 5 or 10 mV increments; peak currents were normalized to the maximum peak current and plotted against voltage).
# [4] = target: T1, rNaV1.4 expressed in CHO cells; assay: Steady-state inactivation, whole-cell recording, Boltzmann fit; type: cell-based
# Description: . The channels were modified by perfusing the cells with buffered solution containing aconitine at the given concentrations and then simple pulses (10 ms pulses to 0 mV from −100 mV holding potential) were recorded until the currents leveled to a steady value (typically ˜1000 pulses). Steady-state fast inactivation of the current was then determined by delivering 500 ms conditioning pulses to potentials ranging from −130 to −11 mV (7 my increments) immediately followed by a 10 ms test pulse to 0 mV to test the available current. The peak current measured during the test pulse was normalized to the maximum peak current recorded in the conditioning pulses. […] Midpoint voltage V0.5 represents the membrane potential at which half maximum current is observed; slope factor at midpoint k quantifies the rate at which the inactivation response occurs.
# [5] = total dose; cited from earlier work
# T1 sequence (P15390 whole entry): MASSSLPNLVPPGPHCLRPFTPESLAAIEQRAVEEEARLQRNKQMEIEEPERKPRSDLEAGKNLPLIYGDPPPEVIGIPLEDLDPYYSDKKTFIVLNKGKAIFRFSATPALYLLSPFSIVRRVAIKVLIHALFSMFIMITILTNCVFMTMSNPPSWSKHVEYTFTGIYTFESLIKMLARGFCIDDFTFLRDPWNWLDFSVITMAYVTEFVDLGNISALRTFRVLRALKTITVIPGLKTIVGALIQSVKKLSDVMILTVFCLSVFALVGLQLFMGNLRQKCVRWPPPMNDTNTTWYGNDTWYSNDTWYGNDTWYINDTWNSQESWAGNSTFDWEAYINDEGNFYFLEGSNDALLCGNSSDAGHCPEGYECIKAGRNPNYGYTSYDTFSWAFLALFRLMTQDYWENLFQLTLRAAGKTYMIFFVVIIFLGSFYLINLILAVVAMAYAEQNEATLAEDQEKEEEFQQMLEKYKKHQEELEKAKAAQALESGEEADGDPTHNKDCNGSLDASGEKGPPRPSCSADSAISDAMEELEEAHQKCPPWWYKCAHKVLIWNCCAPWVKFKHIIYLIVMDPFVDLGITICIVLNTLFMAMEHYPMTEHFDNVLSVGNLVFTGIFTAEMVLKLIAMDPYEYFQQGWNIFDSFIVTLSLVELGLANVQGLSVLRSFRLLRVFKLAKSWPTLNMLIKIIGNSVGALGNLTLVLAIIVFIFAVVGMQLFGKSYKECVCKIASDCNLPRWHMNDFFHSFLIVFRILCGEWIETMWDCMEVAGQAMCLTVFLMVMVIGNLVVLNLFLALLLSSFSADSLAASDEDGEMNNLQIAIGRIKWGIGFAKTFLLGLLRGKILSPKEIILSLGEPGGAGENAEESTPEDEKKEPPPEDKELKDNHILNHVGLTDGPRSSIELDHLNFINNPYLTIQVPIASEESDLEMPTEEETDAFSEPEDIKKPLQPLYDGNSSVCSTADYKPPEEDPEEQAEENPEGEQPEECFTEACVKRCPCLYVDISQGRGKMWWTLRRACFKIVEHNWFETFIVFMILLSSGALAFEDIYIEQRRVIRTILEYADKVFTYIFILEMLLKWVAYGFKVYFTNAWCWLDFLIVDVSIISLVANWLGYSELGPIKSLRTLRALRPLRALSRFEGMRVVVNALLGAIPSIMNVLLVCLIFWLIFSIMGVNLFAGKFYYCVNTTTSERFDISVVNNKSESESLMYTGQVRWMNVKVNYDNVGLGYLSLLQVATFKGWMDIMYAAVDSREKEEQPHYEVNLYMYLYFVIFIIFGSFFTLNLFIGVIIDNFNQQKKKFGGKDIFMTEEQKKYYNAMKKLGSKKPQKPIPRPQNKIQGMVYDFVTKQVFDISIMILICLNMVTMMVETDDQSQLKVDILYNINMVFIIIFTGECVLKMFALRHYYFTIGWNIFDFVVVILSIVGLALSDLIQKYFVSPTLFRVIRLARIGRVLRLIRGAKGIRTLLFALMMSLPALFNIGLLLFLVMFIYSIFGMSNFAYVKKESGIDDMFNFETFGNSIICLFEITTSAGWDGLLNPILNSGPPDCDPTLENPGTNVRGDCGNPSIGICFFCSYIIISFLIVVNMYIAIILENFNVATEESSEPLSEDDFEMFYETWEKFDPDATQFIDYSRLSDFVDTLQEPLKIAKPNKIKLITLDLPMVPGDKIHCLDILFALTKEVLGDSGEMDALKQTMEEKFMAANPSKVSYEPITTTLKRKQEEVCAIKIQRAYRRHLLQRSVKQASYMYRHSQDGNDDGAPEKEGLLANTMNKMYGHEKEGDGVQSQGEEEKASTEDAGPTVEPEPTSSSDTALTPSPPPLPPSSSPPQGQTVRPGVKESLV
smiles,measurement,setting,value
"CCN1CC2(COC)C3C(OC)C4C1C3(C1C[C@@]3(O)[C@H](OC(=O)c5ccccc5)[C@@H]1[C@]4(OC(C)=O)[C@@H](O)[C@@H]3OC)[C@@H](OC)C[C@H]2O (some centres unmarked) [Aconitine, aconitine]",peak current blocked at steady state,[1],40%
same,% Remaining current after reaching steady-state binding,[1]; 5 μM,40%
same,% Remaining current after reaching steady-state binding,[1]; 20 μM,19%
same,peak current blocked at steady state,[1]; 20 μM,81%
same,Current measured at 20 μM (%),"[1]; 20 μM, before wash-off",19%
same,depolarizing pulses required to reach steady-state block,[1]; 20 μM,around 600 pulses
same,% Remaining current after reaching steady-state binding,[1]; 50 μM,13%
same,peak current blocked at steady state,[1]; 50 μM,83%
same,depolarizing pulses required to reach steady-state block,[1]; 50 μM,approximately 800 pulses
same,% Remaining current after reaching steady-state binding,"[1]; 50 μM, listed as aconitine",15%
same,% Remaining current after reaching steady-state binding,[1]; 75 μM,13%
same,peak current blocked at steady state,[1]; 75 μM,87%
same,Current measured at 75 μM (%),"[1]; 75 μM, before wash-off",13%
same,depolarizing pulses required to reach steady-state block,[1]; 75 μM,800 pulses
same,% Remaining current after reaching steady-state binding,[1]; 200 μM,5%
same,peak current blocked at steady state,[1]; 200 μM,approximately 94%
same,depolarizing pulses required to reach steady-state block,[1]; 200 μM,300 pulses
same,depolarizing pulses required to reach steady-state block,[1]; 5 (unit not printed),over 2500 pulses
same,current restoration during wash off,"[2]; after 200 μM and 1000 depolarizing pulses, toxin-free buffer with pulses",significant current restoration
same,Current after wash-off (%),[2]; after wash-off of 20 μM,94%
same,Current after wash-off (%),[2]; after wash-off of 75 μM,62%
same,Activation V0.5 (mV),[3],−40.3 mV
same,Activation hg,[3],10.4
same,membrane potential at which maximum inward Na current occurs,[3],around −10 mV
same,current at −50 mV,"[3]; after about 1000 pulses, no current in control cells",substantial currents
same,Steady-state inactivation V0.5 (mV),[4]; 5 μM,−65.1 mV
same,Steady-state inactivation k (slope factor at midpoint),[4]; 5 μM,6.50
same,Steady-state inactivation V0.5 (mV),[4]; 50 μM,−65 mV
same,Steady-state inactivation k (slope factor at midpoint),[4]; 50 μM,5.97
same,Steady-state inactivation V0.5 (mV),[4]; 200 μM,−82.4 mV
same,Steady-state inactivation k (slope factor at midpoint),[4]; 200 μM,21.0
same,"lethal doses in humans, estimated",[5],1 to 5 mg

# Reference: US9085536B2, “Aconitine compounds, compositions, uses, and preparation thereof” (priority 2011, dated 2015)
